From patent US20260256753A1, “USE OF AN OREXIN 2 RECEPTOR AGONIST FOR IMPROVING RESPIRATORY FUNCTION DURING SLEEP” (TAKEDA PHARMACEUTICAL COMPANY LIMITED, priority 2023, published 2026)

What was measured:
[1] = tested on: neurons in the pre-Bötzinger complex; assay: Electrophysiologic recording of neurons in the pre-Bötzinger complex in rat medullary slices; assay type: cell-based; details: whole cell patch clamp, versus vehicle (0.1% DMSO) control, FIG. 1
From the text: (§1) Neonatal rats (postnatal day 1-10) were decapitated and the neuraxis was isolated in a chamber filled with oxygenated artificial cerebrospinal fluid solution (ACSF, in mM: NaCl 125, KCl 2.5, MgCl2 1, CaCl2 2, NaHCO3 25, NaH2PO4 1.25, glucose 25, pH 7.4). The cerebellum was removed, and the brainstem was mounted in the vibratome (VT 1000S; Leica, Milan, Italy) chamber filled with oxygenated gluconate cutting solution (in mM: Kgluconate 130, KCl 15, EGTA 0.2, HEPES 20, glucose 25, kynurenic acid 2, pH 7.4). Transverse medullary slices containing the pre-Bötzinger complex and hypoglossal nucleus were cut (400-600 μm thick). The slices were transferred at room temperature for 1 min in an oxygenated mannitol cutting solution (in mM: D-mannitol 225, glucose 25, KCl 2.5, NaH2PO4 1.25, NaHCO3 26, CaCl2 0.8, MgCl2 8, kynurenic acid 2, pH 7.4). Slices were then transferred in ACSF solution at 30° C. for 30 min and at room temperature for 30 min. At least 30 min prior to the start of recording, each slice was transferred in the recording solution in which the concentration of K+ was raised to 9 mM and that of Mg2+ was decreased to 0.5 mM to ensure the production of long-term and stable rhythm. […] Signals were acquired using Clampex 10.6 software (Axon, Molecular Devices, CA, USA) at a sampling rate of 10-20 kHz and filtered at 2-10 kHz using an 8-pole Bessel filter built within the software and analyzed using Clampfit 10.6 software (pClamp 10.6; Axon, Molecular Devices). […] Bursts were then automatically detected, and burst frequency was measured.
(§2) To evaluate the effects of vehicle (0.1% DMSO) on neuronal activities, after 5 min of stabilization, the neuronal activities under basal condition was recorded for 2-12 min, followed by recording in the presence of vehicle (0.1% DMSO) for 30 min. […]

[2] = tested on: phrenic motoneurons; assay: Electrophysiologic recording of phrenic motoneurons in rat isolated brainstem-spinal cord preparations; assay type: cell-based; details: C3-5 ventral root, versus vehicle control, FIG. 2
Description: Neonatal (postnatal day 1-4) rats were decapitated, and the brainstem-spinal cord was dissected in a bath containing ACSF. The cerebellum and pons were ablated. At least 30 min prior to the start of recording, the tissue was transferred in the recording solution in which the concentration of K+ was raised to 5 mM and that of Mg2+ was decreased to 0.5 mM to ensure production of long-term and stable rhythm (modified ACSF, in mM: NaCl 125, MgCl2 0.5, KCl 5, CaCl2 1, NaHCO3 25, NaH2PO4 1.25, glucose 30, pH 7.4). The tissues were glued on coverslips and transferred to a recording chamber and continuously perfused at 27±2° C. with mACSF at a flow rate of 2.3±0.2 mL/min. Activity of phrenic motoneurons was measured in electrophysiological recordings from C3-5 ventral root, outputs of phrenic motoneurons (J. J. Greer, J. C. Smith, J. L. Feldman, Respiratory and locomotor patterns generated in the fetal rat brain stem-spinal cord in vitro, J Neurophysiol 67 (4) (1992) 996-9; J. C. Smith, J. J. Greer, G. S. Liu, J. L. Feldman, Neural mechanisms generating respiratory pattern in mammalian brain stem-spinal cord in vitro. I. Spatiotemporal patterns of motor and medullary neuron activity, J Neurophysiol 64 (4) (1990) 1149-69), using a glass suction electrode. […] The rectification and integration was used for quantification of the activities of phrenic motoneurons because the spontaneous bursts detected in voltage signals are consisting of multiple positive and negative voltages from baseline (T. Sugita, et al.). […] Bursts were then automatically detected, and burst frequency was measured.
To evaluate the effects of vehicle (0.1% DMSO) on neuronal activities, after 5 min of stabilization, the neuronal activities under basal condition were recorded for 2-20 min, followed by recording with vehicle (0.1% DMSO) for 30-40 min. […] As vehicle (0.1% DMSO) had no significant effects on burst frequency of phrenic neurons, potential of drugs was assessed under vehicle (0.1% DMSO). […]

[3] = tested on: hypoglossal motoneurons; assay: Electrophysiologic recording of hypoglossal motoneurons in rat medullary slices; assay type: cell-based; details: whole cell patch clamp, versus vehicle control, FIG. 3
From the text: as §1, §2

[4] = molecular target: T1, OX2R (Homo sapiens, UniProt O43614); details: OX2R-expressed recombinant cells; cited from earlier work
T1 sequence (O43614 1-444): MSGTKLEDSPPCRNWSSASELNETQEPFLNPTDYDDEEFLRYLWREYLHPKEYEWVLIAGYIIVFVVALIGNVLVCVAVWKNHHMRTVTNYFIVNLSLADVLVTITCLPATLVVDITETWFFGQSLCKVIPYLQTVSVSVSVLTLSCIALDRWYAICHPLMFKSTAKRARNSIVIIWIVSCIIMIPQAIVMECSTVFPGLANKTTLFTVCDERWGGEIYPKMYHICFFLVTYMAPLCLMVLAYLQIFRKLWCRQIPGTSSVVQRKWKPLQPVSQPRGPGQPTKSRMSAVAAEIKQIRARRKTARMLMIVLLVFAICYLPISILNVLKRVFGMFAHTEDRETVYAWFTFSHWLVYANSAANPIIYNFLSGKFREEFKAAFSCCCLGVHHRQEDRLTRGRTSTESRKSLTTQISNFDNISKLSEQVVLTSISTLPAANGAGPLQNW

[5] = molecular target: T1, OX2R; details: OX2R-expressed recombinant cells; cited from earlier work; remark: listed apart in the source

Compound | burst frequency in neurons in the pre-Bötzinger complex [1] | burst frequency of phrenic motoneurons [2] | burst frequency of hypoglossal motoneurons [3] | recruitment of β-arrestins [4] | calcium mobilization [5]
CC(C)(O)C(=O)N1CC[C@H](NS(C)(=O)=O)[C@@H]1Cc1cccc(-c2cc(F)cc(F)c2)c1F [Compound B, N-((2S,3S)-1-(2-hydroxy-2-methylpropanoyl)-2-((2,3′,5′-trifluorobiphenyl-3-yl)methyl)pyrrolidin-3-yl) methanesulfonamide] | increased burst frequency | increased burst frequency | increased burst frequency |  | 
COc1ccc(-c2cccc(C(=O)N(C)C)c2)cc1S(=O)(=O)Nc1cccc(NCCNC(=O)c2ccccc2N(C)C)c1 [YNT-185] |  |  |  | promote recruitment of β-arrestins | increase calcium mobilization
Orexin-B: Orexin-B (OX-B) peptide |  |  |  | promote recruitment of β-arrestins | increase calcium mobilization
